Measurements reported in patent US9468641B2, “Anti-inflammatory pharmaceutical composition comprising benzopyranyl tetracycles” (SEOUL NATIONAL UNIVERSITY R&DB FOUNDATION, priority 2014, dated 2016).

Columns and labels:
BV-2 cells = test: Griess assay of LPS-induced nitrite release in BV-2 cells; type: cell-based; settings: BV2 microglial cells, with or without LPS stimulation, FIG. 1
Procedure: (§1) Cells increase the secretion of nitrite when induced to be inflammatory, but decrease the secretion of nitrite in the presence of an anti-inflammatory agent. […] Cells were treated with the compounds in the absence or presence of 100 ng/mL LPS (lipopolysaccharide). After 24 hrs of incubation, the cell culture media were reacted with Griess reagent (0.1% naphthylethylenediamine dihydrochloride and 1% sulfanilamide in 2% phosphoric acid). Absorbance was measured at 550 nm using a microplate reader, and the level of nitrite was estimated by comparison with a sodium nitrite standard curve.

[1] = test system: HAPI cells, Primary neuroblastoma, and RAW 264.7 cells; test: Griess assay of nitrite release in further cell lines; type: cell-based; settings: LPS stimulation, FIG. 2
Procedure: as §1

[2] = test system: proinflammatory cytokine TNFα; test: TNF-α ELISA of LPS-induced secretion; type: cell-based; settings: FIG. 4
Procedure: TNF-α secretion was measured using a TNF-α ELISA kit. Cells were treated with LPS in the absence or presence of ICM. After 24 hrs of incubation, the levels of TNF-α in the culture medium were measured with rat monoclonal anti-mouse TNF-α antibody as a capture antibody, and goat biotinylated polyclonal anti-mouse TNF-α antibody as a detection antibody. The biotinylated anti-TNF-α antibody was detected by sequential incubation with streptavidin-horseradish peroxidase conjugate. After incubation with a TMB substrate for 20 min, the color development was stopped by adding 2 N H2SO4. The absorbance was then read (450 nm and 540 nm) using a microplate reader.

NF-κB signaling (p65) = test: Immunofluorescence staining of nuclear translocation of p65; type: cell-based; settings: LPS stimulation, FIG. 5
Procedure: Cells were pretreated with ICM and LPS for 1 hr and then fixed with 4% paraformaldehyde for 30 min at 20° C. and with cold methanol for 10 min at −20° C. After permeabilization with 0.3% Triton X-100 and PBS for 10 min, the fixed cells were blocked with 1% normal horse serum for 1 hr and incubated with mouse anti-p65 antibody at 4° C. for 12˜16 hrs. After washing with PBS containing 0.05% Tween-20 (PBST), Alexa Fluor-488-labeled goat anti-mouse IgG antibody was added to the sample, incubated for 1 hr at room temperature and washed with PBST. Nuclei were visualized by DAPI staining. Samples were analyzed by fluorescence microscopy.

HMGB2 [3] = molecular target: T1, HMGB2 (Mus musculus, UniProt P30681); test: Griess assay in BV-2 cells with siRNA-mediated HMGB2 knockdown; type: cell-based; settings: normalized to DMSO treatment, FIG. 16
T1 construct: endogenous in cells
T1 sequence (P30681 1-210): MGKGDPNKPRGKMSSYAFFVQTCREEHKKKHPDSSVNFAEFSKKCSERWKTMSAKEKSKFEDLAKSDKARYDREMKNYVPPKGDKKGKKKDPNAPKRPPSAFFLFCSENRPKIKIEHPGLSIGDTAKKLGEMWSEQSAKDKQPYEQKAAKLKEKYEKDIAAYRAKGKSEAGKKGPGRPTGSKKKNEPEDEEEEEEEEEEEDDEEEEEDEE
Procedure: as §1
The siRNA transfection of BV-2 microglial cells was performed using Lipofectamine™ 2000 (Invitrogen). Forty-eight hours after transfection, the cells were used for further experiments.

HMGB2 [4] = molecular target: T1, HMGB2; test: Subcellular fractionation and secretion analysis; type: cell-based; settings: LPS stimulation, western blotting, FIG. 17
Procedure: After exposure to ICM in the presence of LPS for 18 hrs, cells were lysed in subcellular fraction buffer (250 mM sucrose, 20 mM HEPES, 10 mM KCl, 1 mM EDTA, 1 mM EGTA, 1 mM DTT, and protease inhibitor cocktail), passed through a 25-Ga needle several times, and incubated on ice for 20 min. After centrifugation at 3,000 rpm for 5 min, the pellet and the supernatant were separated. The nuclear pellet was washed and then resuspended in standard lysis buffer with 10% glycerol and 0.1% SDS. The cytosolic fraction was obtained by centrifugation of the separated supernatant at 8,000 rpm for 15 min. The conditioned medium was collected for the analysis of the extracellular level of HMGBs and concentrated with Amicon Ultra 10K filters. The samples were analyzed by electrophoresis and western blotting.

[5] = test system: LPS-mediated microglial activation; test: LPS neuroinflammation model; type: in vivo, C57BL/6 mice; settings: cortex, substantia nigra, hippocampus; ICM 2 and 10 mg/kg, FIG. 19
Procedure: All experiments were performed on 11-week-old male C57BL/6 mice. The animals were divided into four experimental groups (group 1: control treated with vehicle; group 2: treated with ICM; group 3: treated with LPS and vehicle; and group 4: treated with LPS and ICM). ICM (2 or 10 mg per kg body weight) or vehicle (distilled water containing 5% DMSO and 40% polyethylene glycol) was administered once a day for 4 days. LPS was administered at a dose of 5 mg/kg on day 2 for a single challenge.
Mice were anesthetized with diethyl ether, transcardially perfused with cold saline, and then fixed with 4% paraformaldehyde diluted in 0.1 M PBS. Brains or lumbar spinal cords were fixed using 4% PFA for 3 days and then cryoprotected with a 30% sucrose solution for 3 days. Three animals were used per experimental group. The fixed brains and spinal cords were embedded in OCT compound for frozen sectioning and then sectioned coronally at 20 μm. To detect LPS-induced microglial activation, each section was incubated with a rabbit anti-Iba-1 antibody and FluoroMyelin. The sections were visualized directly or incubated with Cy3-conjugated anti-rabbit IgG antibody. Also, the sections were stained with hematoxylin and eosin to assess inflammatory lesions.

EAE model = test: Experimental auto-immune encephalitis (EAE) model; type: in vivo, C57BL/6 mice

With CC1(C)Oc2cc(O)ccc2C2C1=CCn1c(=O)n(-c3ccccc3)c(=O)n12 (stereo not drawn) [ICM] the LPS-induced nitrite release (BV-2 cells) was “efficiently blocked LPS-induced nitrite release from BV2 microglial cells in a dose-dependent manner”, the nitrite release [1] was “inhibit nitrite release in a broad range of cell lines” and the “LPS-induced secretion of TNFα” value [2] was “suppressed LPS-induced secretion of the proinflammatory cytokine”. The “nuclear translocation of p65” value (NF-κB signaling (p65)) was “suppressed NF-κB signaling”, the “anti-inflammatory effect on LPS-induced nitrite release under HMGB2 knockdown” value (HMGB2 [3]) was “anti-inflammatory effect of ICM was decreased by HMGB2 knockdown” and the “translocation of HMGB2 from nucleus to cytoplasm and extracellular milieu” value (HMGB2 [4]) was “the translocation was suppressed by ICM”. For the same compound, the “LPS-mediated microglial activation (Iba-1+ cell number)” value [5] was “effectively blocked LPS-mediated microglial activation in all the brain parts”, the “HMGB2 levels in cerebrospinal fluid and serum” value (EAE model; ELISA, FIG. 24) was “effectively suppressed the release of HMGB2 into body fluids” and the “microglial activation in spinal cords (anti-Iba-1 staining)” value (EAE model; FIG. 21) was “clearly suppressed by ICM treatment”. The “mRNA levels of proinflammatory cytokines and chemokines in microglia” value (EAE model; RT-PCR, microglial cells from brain of EAE mice, FIG. 23) was “decreased in the ICM-treated group”, the “mean clinical score (0-5 scale)” value (EAE model; days after MOG immunization, FIG. 20) was “reduced with ICM treatment” and the “HMGB1 or HMGB2 levels in spinal cord sections” value (EAE model; immunofluorescence, FIG. 25) was “effectively reduced the EAE-induced increase of HMGB1 or HMGB2 levels”. For the same compound, the “MAP-2 levels in ventral horn and ventral column” value (EAE model; immunofluorescence, FIG. 26) was “effectively recovered by ICM administration”, the “inflammatory lesions in spinal cords (H&E staining)” value (EAE model; lumbar spinal cord, 15 days after EAE induction, FIG. 22) was “substantially attenuated by ICM treatment” and the “demyelination (anti-MBP staining)” value (EAE model; spinal cord sections, FIG. 27) was “suppresses the demyelination in the EAE model”.
